# Target: P. falciparum apicoplast DNA polymerase (Pf-apPOL) (Plasmodium falciparum, UniProt Q8ILY1)
# Experiment: Fluorescence-based high-throughput DNA polymerase assay (molecular beacon), primary screen and dose-response;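 on % inhibition ApPOL 90': test concentration in µM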;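 on % inhibition apPOL 180': test concentration in µM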
# Assay type: biochemical
# In short: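 Single-point screening used 10 µM compound with 20 nM polymerase, 20 nM hairpin substrate and 6 µM dNTPs for 90 min at 25 °C. Confirmatory titrations (2.5–80 µM) followed fluorescence at three times, and IC50 was derived from a fit including a cooperativity term n.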
# Chain of P. falciparum apicoplast DNA polymerase (Pf-apPOL) (Q8ILY1 entry or part of it): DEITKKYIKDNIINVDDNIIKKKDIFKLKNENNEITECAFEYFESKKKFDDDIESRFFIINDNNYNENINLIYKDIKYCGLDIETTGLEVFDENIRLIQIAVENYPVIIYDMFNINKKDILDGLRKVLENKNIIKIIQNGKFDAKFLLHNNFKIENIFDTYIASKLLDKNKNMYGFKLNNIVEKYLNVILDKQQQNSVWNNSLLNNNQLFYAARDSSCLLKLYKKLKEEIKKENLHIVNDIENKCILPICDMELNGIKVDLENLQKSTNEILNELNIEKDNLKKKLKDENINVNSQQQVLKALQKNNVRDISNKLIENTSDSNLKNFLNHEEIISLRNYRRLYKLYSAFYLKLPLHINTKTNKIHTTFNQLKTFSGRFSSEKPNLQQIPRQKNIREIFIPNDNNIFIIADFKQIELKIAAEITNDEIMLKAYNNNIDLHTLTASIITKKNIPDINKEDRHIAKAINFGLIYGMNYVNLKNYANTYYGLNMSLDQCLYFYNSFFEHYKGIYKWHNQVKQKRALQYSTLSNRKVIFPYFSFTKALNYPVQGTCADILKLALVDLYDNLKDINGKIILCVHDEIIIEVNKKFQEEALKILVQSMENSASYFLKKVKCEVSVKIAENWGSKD
compound,measurement,setting,value
"N#Cc1c(C2CCCCC2)nc(Sc2ccc(C(F)(F)F)cc2[N+](=O)[O-])[nH]c1=O [Molecule 20, N#Cc1c(=O)[nH]c(nc1C1CCCCC1)Sc1ccc(cc1N(=O)=O)C(F)(F)F]",DNA Pol,"'DNA Pol' of the 186 hits list (primary screen result); unit not given; 90 min, 10 µM",99
same,% inhibition Apo pol 10',DRC-1; 10'; concentration 2.5,13.479%
same,% inhibition Apo pol 10',DRC-1; 10'; concentration 5,22.3075%
same,% inhibition Apo pol 10',DRC-1; 10'; concentration 10,58.5642%
same,% inhibition Apo pol 10',DRC-1; 10'; concentration 20,88.1341%
same,% inhibition Apo pol 10',DRC-1; 10'; concentration 40,96.8636%
same,% inhibition Apo pol 10',DRC-1; 10'; concentration 80,98.9889%
same,% inhibition Apol 90',DRC-1; 90'; concentration 2.5,11.5568%
same,% inhibition Apol 90',DRC-1; 90'; concentration 5,20.2551%
same,% inhibition Apol 90',DRC-1; 90'; concentration 10,55.7655%
same,% inhibition Apol 90',DRC-1; 90'; concentration 20,84.5767%
same,% inhibition Apol 90',DRC-1; 90'; concentration 40,95.5899%
same,% inhibition Apol 90',DRC-1; 90'; concentration 80,98.5408%
same,% inhibition apPOL 180',DRC-1; 180'; concentration 2.5,4.639%
same,% inhibition apPOL 180',DRC-1; 180'; concentration 5,10.6134%
same,% inhibition apPOL 180',DRC-1; 180'; concentration 10,43.2916%
same,% inhibition apPOL 180',DRC-1; 180'; concentration 20,78.9137%
same,% inhibition apPOL 180',DRC-1; 180'; concentration 40,94.1749%
same,% inhibition apPOL 180',DRC-1; 180'; concentration 80,98.1002%
same,% inhibition Apo pol 5',"DRC-2, 5', concentration 20 (unit not given)",55%
same,% inhibition Apol 40',"DRC-2, 40', concentration 10 (unit not given)",55%
same,% inhibition ApPOL 90',"DRC-2, 90', concentration 40 (unit not given)",77%
same,% inhibition apPOL 180',"DRC-2, 180', concentration 40 (unit not given)",77%
same,% inhibition Apo pol 5',DRC-2; 5'; concentration 2.5,3.66%
same,% inhibition Apo pol 5',DRC-2; 5'; concentration 5,11%
same,% inhibition Apo pol 5',DRC-2; 5'; concentration 10,43%
same,% inhibition Apo pol 5',DRC-2; 5'; concentration 20,55%
same,% inhibition Apo pol 5',DRC-2; 5'; concentration 40,60%
same,% inhibition Apo pol 5',DRC-2; 5'; concentration 80,61%
same,% inhibition Apol 40',DRC-2; 40'; concentration 2.5,6.56%
same,% inhibition Apol 40',DRC-2; 40'; concentration 5,16%
same,% inhibition Apol 40',DRC-2; 40'; concentration 10,55%
same,% inhibition Apol 40',DRC-2; 40'; concentration 20,68%
same,% inhibition Apol 40',DRC-2; 40'; concentration 40,75%
same,% inhibition Apol 40',DRC-2; 40'; concentration 80,78%
same,% inhibition ApPOL 90',DRC-2; 90'; concentration 2.5,4.51%
same,% inhibition ApPOL 90',DRC-2; 90'; concentration 5,13%
same,% inhibition ApPOL 90',DRC-2; 90'; concentration 10,54%
same,% inhibition ApPOL 90',DRC-2; 90'; concentration 20,69%
same,% inhibition ApPOL 90',DRC-2; 90'; concentration 40,77%
same,% inhibition ApPOL 90',DRC-2; 90'; concentration 80,82%
same,% inhibition apPOL 180',DRC-2; 180'; concentration 2.5,-0.258%
same,% inhibition apPOL 180',DRC-2; 180'; concentration 5,7%
same,% inhibition apPOL 180',DRC-2; 180'; concentration 10,46%
same,% inhibition apPOL 180',DRC-2; 180'; concentration 20,64%
same,% inhibition apPOL 180',DRC-2; 180'; concentration 40,77%
same,% inhibition apPOL 180',DRC-2; 180'; concentration 80,85%
same,DNA Pol,"primary screen value of the library well; unit not given; 90 min, 10 µM",99
Cc1cccc(-c2nnc3ccc(NS(=O)(=O)c4ccc(C)c(C)c4)nn23)c1 [Molecule 40],IC50,"supplemental file 2, sheet IC50 nontoxic compounds; Pf-apPOL",10.1 µM
O=C(Nc1c2c(nn1-c1ccccc1)CSC2)c1ccco1 [KU0055213],% inhibition Apo pol 10',DRC-1; concentration 2.5; 10',28.0848%
same,% inhibition Apol 90',DRC-1; concentration 2.5; 90',10.2281%
same,% inhibition apPOL 180',DRC-1; concentration 2.5; 180',-1.233%
same,% inhibition Apo pol 10',DRC-1; concentration 5; 10',39.8975%
same,% inhibition Apol 90',DRC-1; concentration 5; 90',17.5159%
same,% inhibition apPOL 180',DRC-1; concentration 5; 180',1.991%
same,% inhibition Apo pol 10',DRC-1; concentration 10; 10',66.5971%
same,% inhibition Apol 90',DRC-1; concentration 10; 90',43.2893%
same,% inhibition apPOL 180',DRC-1; concentration 10; 180',23.4061%
same,% inhibition Apo pol 10',DRC-1; concentration 20; 10',82.6519%
same,% inhibition Apol 90',DRC-1; concentration 20; 90',64.6698%
same,% inhibition apPOL 180',DRC-1; concentration 20; 180',46.0885%
same,% inhibition Apo pol 10',DRC-1; concentration 40; 10',90.9141%
same,% inhibition Apol 90',DRC-1; concentration 40; 90',82.7699%
same,% inhibition apPOL 180',DRC-1; concentration 40; 180',72.6518%
same,% inhibition Apo pol 10',DRC-1; concentration 80 (unit not given); 10',92.3383%
same,% inhibition Apol 90',DRC-1; concentration 80; 90',91.2919%
same,% inhibition apPOL 180',DRC-1; concentration 80; 180',88.3514%
same,% inhibition Apo pol 5',DRC-2; 5'; concentration 2.5,24%
same,% inhibition Apo pol 5',DRC-2; 5'; concentration 5,37%
same,% inhibition Apo pol 5',DRC-2; 5'; concentration 40,59%
same,% inhibition Apo pol 5',DRC-2; 5'; concentration 80,59%
same,% inhibition Apol 40',DRC-2; 40'; concentration 20,59%
same,% inhibition Apol 40',DRC-2; 40'; concentration 40,70%
same,% inhibition ApPOL 90',DRC-2; 90'; concentration 10,37%
same,% inhibition ApPOL 90',DRC-2; 90'; concentration 40,70%
same,% inhibition apPOL 180',DRC-2; 180'; concentration 10,24%
same,% inhibition Apo pol 5',DRC-2; concentration 2.5; 5',24%
same,% inhibition Apol 40',DRC-2; concentration 2.5; 40',21%
same,% inhibition ApPOL 90',DRC-2; concentration 2.5; 90',17%
same,% inhibition apPOL 180',DRC-2; concentration 2.5; 180',9%
same,% inhibition Apo pol 5',DRC-2; concentration 5; 5',37%
same,% inhibition Apol 40',DRC-2; concentration 5; 40',36%
same,% inhibition ApPOL 90',DRC-2; concentration 5; 90',32%
same,% inhibition apPOL 180',DRC-2; concentration 5; 180',20%
same,% inhibition Apo pol 5',DRC-2; concentration 10; 5',44%
same,% inhibition Apol 40',DRC-2; concentration 10; 40',42%
same,% inhibition ApPOL 90',DRC-2; concentration 10; 90',37%
same,% inhibition apPOL 180',DRC-2; concentration 10; 180',24%
same,% inhibition Apo pol 5',DRC-2; concentration 20; 5',52%
same,% inhibition Apol 40',DRC-2; concentration 20; 40',59%
same,% inhibition ApPOL 90',DRC-2; concentration 20; 90',57%
same,% inhibition apPOL 180',DRC-2; concentration 20; 180',49%
same,% inhibition Apo pol 5',DRC-2; concentration 40; 5',59%
same,% inhibition Apol 40',DRC-2; concentration 40; 40',70%
same,% inhibition ApPOL 90',DRC-2; concentration 40; 90',70%
same,% inhibition apPOL 180',DRC-2; concentration 40; 180',65%
same,% inhibition Apo pol 5',DRC-2; concentration 80; 5',59%
same,% inhibition Apol 40',DRC-2; concentration 80; 40',75%
same,% inhibition ApPOL 90',DRC-2; concentration 80; 90',77%
same,% inhibition apPOL 180',DRC-2; concentration 80; 180',78%
same,DNA Pol,"primary screen value of the 186 hits; unit not given; 90 min, 10 µM",50
same,DNA Pol,"primary screen value; head prints only 'DNA Pol'; 90 min, 10 µM",50
"CO/N=C(\C(=O)N[C@@H]1C(=O)N2C(C(=O)[O-])=C(CSc3nc(=O)c([O-])nn3C)CSC12)c1csc(N)n1.[Na+].[Na+] (stereo partly drawn) [Molecule 83, CO/N=C(/c1csc(n1)N)\C(=O)N[C@@H]1C(=O)N2C1SCC(=C2C(=O)[O-])CSc1nc(=O)c(nn1C)[O-].[Na+].[Na+]]",DNA Pol,"186 hits, value of the hit list (primary screen); unit not given; 90 min, 10 µM",48
same,% inhibition Apo pol 10',DRC-1; 10'; concentration 2.5,18.7657%
same,% inhibition Apo pol 10',DRC-1; 10'; concentration 5,26.0446%
same,% inhibition Apo pol 10',DRC-1; 10'; concentration 10,38.6298%
same,% inhibition Apo pol 10',DRC-1; 10'; concentration 20,50.9335%
same,% inhibition Apo pol 10',DRC-1; 10'; concentration 40,64.2256%
same,% inhibition Apo pol 10',DRC-1; 10'; concentration 80,74.1492%
same,% inhibition Apol 90',DRC-1; 90'; concentration 2.5,-5.899%
same,% inhibition Apol 90',DRC-1; 90'; concentration 5,-4.018%
same,% inhibition Apol 90',DRC-1; 90'; concentration 10,2.565%
same,% inhibition Apol 90',DRC-1; 90'; concentration 20,10.9979%
same,% inhibition Apol 90',DRC-1; 90'; concentration 40,25.6327%
same,% inhibition Apol 90',DRC-1; 90'; concentration 80,43.9979%
same,% inhibition apPOL 180',DRC-1; 180'; concentration 2.5,-15.6799%
same,% inhibition apPOL 180',DRC-1; 180'; concentration 5,-16.0147%
same,% inhibition apPOL 180',DRC-1; 180'; concentration 10,-9.688%
same,% inhibition apPOL 180',DRC-1; 180'; concentration 20,-2.55%
same,% inhibition apPOL 180',DRC-1; 180'; concentration 40,10.5527%
same,% inhibition apPOL 180',DRC-1; 180'; concentration 80,28.4912%
same,% inhibition Apo pol 5',"DRC-2, 5', concentration 2.5",1.37%
same,% inhibition Apo pol 5',"DRC-2, 5', concentration 5",6%
same,% inhibition Apo pol 5',"DRC-2, 5', concentration 10",18%
same,% inhibition Apo pol 5',"DRC-2, 5', concentration 20",30%
same,% inhibition Apo pol 5',"DRC-2, 5', concentration 40",42%
same,% inhibition Apo pol 5',"DRC-2, 5', concentration 80",54%
same,% inhibition Apol 40',"DRC-2, 40', concentration 2.5",-6%
same,% inhibition Apol 40',"DRC-2, 40', concentration 5",-1.68%
same,% inhibition Apol 40',"DRC-2, 40', concentration 10",9%
same,% inhibition Apol 40',"DRC-2, 40', concentration 20",20%
same,% inhibition Apol 40',"DRC-2, 40', concentration 40",37%
same,% inhibition Apol 40',"DRC-2, 40', concentration 80",59%
same,% inhibition ApPOL 90',"DRC-2, 90', concentration 2.5",-8%
same,% inhibition ApPOL 90',"DRC-2, 90', concentration 5",-7%
same,% inhibition ApPOL 90',"DRC-2, 90', concentration 10",1.87%
same,% inhibition ApPOL 90',"DRC-2, 90', concentration 20",12%
same,% inhibition ApPOL 90',"DRC-2, 90', concentration 40",30%
same,% inhibition ApPOL 90',"DRC-2, 90', concentration 80",56%
same,% inhibition apPOL 180',"DRC-2, 180', concentration 2.5",-10%
same,% inhibition apPOL 180',"DRC-2, 180', concentration 5",-12%
same,% inhibition apPOL 180',"DRC-2, 180', concentration 10",-7%
same,% inhibition apPOL 180',"DRC-2, 180', concentration 20",5%
same,% inhibition apPOL 180',"DRC-2, 180', concentration 40",21%
same,% inhibition apPOL 180',"DRC-2, 180', concentration 80",48%
same,% inhibition Apo pol 5',DRC-2; 5'; concentration 20,30%
same,% inhibition ApPOL 90',DRC-2; 90'; concentration 5,-7%
same,% inhibition ApPOL 90',DRC-2; 90'; concentration 40,30%
same,% inhibition apPOL 180',DRC-2; 180'; concentration 10,-7%
same,DNA Pol,"primary screen value, 'DNA Pol' only; 90 min, 10 µM",48

# — paper PMC9090415, “Discovery of small molecule inhibitors of Plasmodium falciparum apicoplast DNA polymerase” (Journal of Enzyme Inhibition and Medicinal Chemistry, 2022)
